Experimental data as given in PMC12186257, “Serendipitous and Systematic Chemoproteomic Discovery of MBLAC2, HINT1, and NME1‑4 Inhibitors from Histone Deacetylase-Targeting Pharmacophores” (ACS Chemical Biology, 2025).
Values belong to the compound of their own block, whether it stands above or below them.

Legend:
MBLAC2 = target: T1, MBLAC2 (Homo sapiens, UniProt Q68D91); test: chemoproteomic competition assay (MV4-11/SW620 lysate, iA/iC/iQ beads, MS readout); type: binding; settings: for MBLAC2 binding / Kd: nine-dose competition assay; for Kd: read-out: KDapp MBLAC2; for EC50: focused library profiling
T1 construct: incubated at increasing concentrations with a mixture of lysates of MV4–11 and SW620 cells; endogenous in cells; host or cells: mixed lysate of MV4-11 and SW620 cells
T1 sequence (Q68D91 1-279): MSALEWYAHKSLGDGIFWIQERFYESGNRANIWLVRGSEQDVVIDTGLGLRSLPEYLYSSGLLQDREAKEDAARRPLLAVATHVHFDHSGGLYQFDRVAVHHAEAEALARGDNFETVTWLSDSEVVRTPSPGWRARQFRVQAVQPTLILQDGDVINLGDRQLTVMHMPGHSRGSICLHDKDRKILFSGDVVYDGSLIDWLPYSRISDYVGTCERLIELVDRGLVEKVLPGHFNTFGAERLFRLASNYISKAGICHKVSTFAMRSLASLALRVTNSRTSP
Protocol: (§1) MBLAC2 is a metalloenzyme predicted to harbor one or two Zn^2+ ions in its active site. […] In this assay, compounds of interest are incubated at increasing concentrations with a mixture of lysates of MV4–11 and SW620 cells. The compound-treated lysates are then mixed with bead-immobilized hydroxamic acid-containing compounds iA, iC, and iQ (immobilized Quisinostat), which pull down compound-binding proteins such as HDACs, MBLAC2, ISOC1/2, ALDH2, and GATD3A (Figure a) that can be identified and quantified by mass spectrometry (MS). Proteins targeted by the library compounds in a preincubation step are prevented from being pulled down by the immobilized probes, leading to a dose-dependent reduction in MS signal. Initially, 12 metal-chelating compounds were profiled at two concentrations (10 μM and 100 μM) (Figure S3).
(§2) Chemoproteomic competition assays
Sample preparation. For the MBLAC2 and HDAC inhibitor competition assay, the generation of affinity matrices, lysate generation, pulldown assay, and sample preparation were performed as described in […]
detail in REF1. […]
(§3) LC-MS/MS. The different sample types were measured with different LC-MS/MS settings. MBLAC2 2-dose competition assays were measured with the Lumos1 setup, MBLAC2 9-dose competition assays were measured with the Lumos2 setup, and kinobeads assays were measured with the Eclipse setup.
(§4) Peptides were analyzed via LC–MS/MS on a Dionex Ultimate3000 nano HPLC coupled to either one of two Orbitrap Fusion Lumos mass spectrometers, or to an Orbitrap Eclipse mass spectrometer, operated via the Thermo Scientific Xcalibur software.
(§5) In the all setups, peptides were loaded on a trap column (100 μm × 2 cm, packed in-house with Reprosil-Gold C18 ODS-3 5 μm resin, Dr. Maisch, Ammerbuch) and washed with 5 μL/min solvent A (0.1% formic acid in HPLC grade water) for 10 min. Peptides were then separated on an analytical column (75 μm × 40 cm, packed in-house with Reprosil-Gold C18 3μm resin, Dr. Maisch, Ammerbuch) using a 50 min gradient ranging from 4 to 32% solvent B (0.1% formic acid, 5% DMSO in acetonitrile) in solvent A (0.1% formic acid, 5% DMSO in HPLC grade water) at a flow rate of 300 nL/min.
(§6) The mass spectrometers were operated in data-dependent mode, automatically switching between MS1 and MS2 spectra. MS1 spectra were acquired over a mass-to-charge (m/z) range of 360–1300 m/z at a resolution of 60,000 (at m/z 200) in the Orbitrap using a maximum injection time of 50 ms and an automatic gain control (AGC) target value of 4e5.
(§7) In Lumos settings, up to 12 peptide precursors were isolated in (isolation width of 1.2 Th for Lumos1 and 1.7 for Lumos2, maximum injection time of 75 ms, AGC value of 1e5 for Lumos1 and 2e5 for Lumos2), fragmented by HCD using 30% normalized collision energy (NCE) and analyzed in the Orbitrap at a resolution of 15,000 (Lumos2) or 30,000 (Lumos1). The dynamic exclusion duration of fragmented precursor ions was set to 20 s (Lumos1) or 30 s (Lumos2). In Eclipse measurements, a cycle time of 2 s was chosen. Peptides were isolated in the quadrupole with an isolation offset of 1.2 (isolation width of 1.2 Th, maximum injection time of 54 ms, AGC target of 200%) and fragmented by HCD with an NCE of 30% and analyzed in the Orbitrap at a resolution of 30,000. The dynamic exclusion on the Eclipse was set to 20 s.
Data analysis. The data analysis of MBLAC2/HDAC inhibitor competition assays was performed as described in detail in REF1. LFQ intensity values were used for the calculation of relative residual binding to the affinity matrix. […]

[1] = test system: cell proliferation or fitness; test: alamar blue cell metabolic activity assay with MBLAC2 inhibitors; type: cell-based; settings: 72h, five concentrations
Description: Our earlier observation that MBLAC2 inactivation leads to the upregulation of extracellular vesicles (EVs), combined with evidence of MBLAC2’s association with late endosomes and membrane processes, , prompted us to hypothesize that MBLAC2 inactivation might impair endocytosis. To test this hypothesis, we measured clathrin-mediated endocytosis of fluorescently labeled transferrin (TF) in the presence and absence of MBLAC2 inhibitors. […] Thus, the precise biological roles of MBLAC2 remain elusive. However, we anticipate that the selective compounds identified in this study will serve as valuable tools for elucidating the cell biological functions of MBLAC2 in future research.
Fig. S6| Characterization of MBLAC2 inhibitors. a, 9-dose competition assay of MBLAC2 selective inhibitors KV-65 and KV-79. b, Impact of MBLAC2i on cell metabolic activity assessed in an alamar blue assay. Cells were treated in triplicates with five concentrations of MBLAC2i and a DMSO vehicle control for 72h. c, Clathrin-mediated endocytosis assay based on measurement of fluorescent transferrin uptake. Dynasore and Pitstop-2 serve as positive controls. HeLa cells were pre-incubated with 100 µM Dynasore, 2 µM KV65, or 2 µM KV79 for 20 h before the microscopy readout. 30 µM Pitstop-2 was added only for 15 min before readout. […]

HeLa cells = test: clathrin-mediated endocytosis of fluorescently labeled transferrin; type: cell-based; settings: HeLa cells, 2 µM, 20 h
Protocol: Given that local GTP production by NME1 and NME2 is essential for fueling dynamin-driven endocytosis, we investigated the effect of KV-50-mediated NME1/2 inhibition on fluorescent transferrin (TF) uptake in cells. HeLa cells were treated with KV-50 or known endocytosis inhibitors (Pitstop-2 and Dynasore), and surface-bound and internalized fluorescent TF were quantified.

Toxoplasma gondii = test system: Toxoplasma gondii; design: method as in PMID 33360687, PMID 35483428, PMID 38431113, PMID 29414107; settings: in human host cells; cited from earlier work
[2] = target: recombinant HINT1 (hHint1) (Homo sapiens, UniProt P49773); test: HINT1 enzyme activity assay (TrpA hydrolysis, fluorescence); type: biochemical; settings: hHint1 0.002 µM, TrpA 0.5 µM, 25 °C
Description: While the biologically relevant substrates of HINT1 have not been clearly elucidated, the protein has been implicated in opioid receptor signaling, − regulation of the melanoma-associated transcription factor MITF, , and DNA damage repair. These functions position HINT1 as a potential pharmacological target for treating conditions such as opioid resistance or melanoma. The only reported HINT1-targeting pharmacophores are nucleoside-based nonhydrolyzable substrate analogs, such as the carbamate TrpGC (Figure a). , We evaluated the inhibitory potential of KV-24 and KV-30 in enzyme activity assays using recombinant HINT1. […] This discrepancy could be attributed to reduced affinity for the recombinant enzyme due to the absence of post-translational modifications (PTMs), cofactors, or interaction partners that enhance drug binding. Alternatively, it might result from substrate dilution in the lysate, whereas high substrate concentrations in the enzyme activity assay require the inhibitor to compete more effectively.
Mouse brain proteomics – LC-MS/MS. Proteome analysis of brain mouse tissue samples was performed on a micro-flow LC timsTOF HT setup described in detail in REF14. Liquid chromatography in micro-flow mode was performed on a Vanquish Neo UHPLC System (Thermo Fisher Scientific) at a flow rate of 50 µL/min. […] 10 µg of peptide mix was injected and analyzed using a 58 min gradient starting at 1% B up to 45% B (1 h method). […]
Mouse proteomics data analysis. The data files were analyzed with DIA-NN 1.8.1. […] The resulting protein group tables were further analyzed by Perseus 1.6.2.2. […]
CME of transferrin and confocal microscopy analyses.For transferrin uptake experiments HeLa cells were seeded on Matrigel-coated coverslips, and incubated with 0.1 % DMSO, or with 100 µM dynasore, 20 µM KV50, 2 µM KV65, or 2 µM KV79 in media containing 10% FCS at 37°C for 20 h. […] All inhibitor treatments were performed in duplicate, to enable quantification of surface levels of transferrin receptors, and to assess the capability of transferrin receptor endocytosis. […]

[3] = test system: compound-binding proteins such as HDACs, MBLAC2, ISOC1/2, ALDH2, and GATD3A; test: chemoproteomic competition assay, proteome-wide target binding profile; design: species or system human; settings: dose-dependent competition
Protocol: as §1, §2
Sample preparation. For the MBLAC2 and HDAC inhibitor competition assay, the generation of affinity matrices, lysate generation, pulldown assay, and sample preparation were performed as described in detail in REF1. For the kinobeads assay, the generation of affinity matrices, lysate generation, pulldown assay, and sample preparation were performed as described in detail in REF2.
as §3, §4, §5, §6
as §7, with “HCD with an NCE of 30% and analyzed in the Orbitrap at a resolution of 30,000. The dynamic exclusion on the Eclipse was set to 20 s.” left out

Chain of recombinant HINT1 (hHint1) (P49773 whole entry): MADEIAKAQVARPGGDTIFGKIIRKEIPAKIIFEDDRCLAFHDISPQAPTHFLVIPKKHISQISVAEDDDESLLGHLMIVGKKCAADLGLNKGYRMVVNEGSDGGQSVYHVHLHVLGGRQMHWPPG

Compound: O=C(NO)c1ccc(CN2c3ccccc3Sc3ccc(C(F)(F)F)cc32)cc1 [KV-79]
concentration up to which cell proliferation or fitness not affected [1]: > 10 µM | TF uptake (HeLa cells): not statistically significant | selectivity compared to HDACs (MBLAC2; abstract): over 60 fold | EC50 (MBLAC2): 25 nM

Compound: CN1CCc2c(c3ccccc3n2Cc2ccc(C(=O)NO)cc2)C1 [Tubastatin A, reference compound]
inhibition of proliferation of protozoans (Toxoplasma gondii): potently inhibit the proliferation

Compound: Nc1nc2c(ncn2[C@@H]2O[C@H](COC(=O)NCCc3c[nH]c4ccccc34)[C@@H](O)[C@H]2O)c(=O)[nH]1 [TrpGC, reference compound]
IC50 [2]: 9100 nM

Compound: ACY-1083
MBLAC2 binding (MBLAC2): potently bound MBLAC2

Compound: O=C(NO)c1ccc(CN2c3ccccc3S(=O)(=O)c3ccccc32)cc1 [KV-65]
concentration up to which cell proliferation or fitness not affected [1]: > 10 µM | TF uptake (HeLa cells): not statistically significant | EC50 (MBLAC2): 37 nM

Compound: O=C(CCCCCCC(=O)NO)NO [SBHA, suberoyl-bis-hydroxamic acid, reference compound]
targets / off-targets bound [3]: bind off-targets such as ISOC1/2, GATD3A, and ALDH2

Compound: Cn1c(CCCCCCC(=O)NO)nc2cc(N(CCCl)CCCl)ccc21 [Tinostamustine, reference compound]
targets / off-targets bound [3]: bind off-targets such as ISOC1/2, GATD3A, and ALDH2

Compound: CN(CC(=O)N(Cc1ccc(C2CCCCC2)cc1)c1ccc(C(=O)NO)cc1)S(=O)(=O)c1c(F)c(F)c(F)c(F)c1F [SH5–07]
Kd (MBLAC2): ~800 nM

Continued, values first:

MBLAC2 binding (MBLAC2): potently bound MBLAC2 | Kd (MBLAC2): 75 nM
Compound: O=C(NO)c1ccc(CN2CCCc3cc(Cl)ccc32)cc1 [SW-100]

EC50 (MBLAC2): 83 nM
Compound: O=C(NO)c1ccc(CN2c3ccccc3Sc3ccccc32)cc1 [KV-46]

MBLAC2 binding (MBLAC2): potently bound MBLAC2
Compound: O=C(NO)c1ccc(Cn2c(=O)n(CCc3ccccc3)c(=O)c3ccccc32)cc1 [Compound J22352]
